Laboratory results as given in patent US20230028658A1, “EXPANDED DOSAGE REGIMENS FOR INTEGRIN INHIBITORS” (Pliant Therapeutics, Inc., priority 2021, published 2023).

Experiments:
lung Col1a1 expression = assay: Precision cut lung slices of mice under chronic bleomycin exposure, Col1a1 expression (Example B9); format: cell-based, Mice (C57BL/6); conditions: chronic bleomycin PCLS, 7 days culture, normalized to DMSO; FIG. 5B
Procedure: Mice (C57BL/6) were administered 3 U/kg of bleomycin (Teva Pharmaceuticals; North Wales, Pa.) on Day 0 and 1 U/kg of bleomycin on days 14, 28, 42 and 56 via oropharyngeal aspiration while under anesthesia. At day 70, 14 days after the final bleomycin insult, precision cut lung slices were obtained. Following euthanization, 2% low gelling temp agarose was injected into the mouse lungs via the trachea. […] The lobes were then subjected to precision slicing to obtain samples for culture using a microtome (Compresstome VF-300-0Z, Precisionary; Greenville, N.C.). Individual slices were distributed in a multiwell culture plate and cultured for 7 days under control (DMSO) and test compound conditions. The viability of the slices over the course of culturing was confirmed by WST-1 assay of mitochondrial activity.
During the culture period, slices in the control group were treated with DMSO and slices in the test group were treated with a DMSO solution of one of: the selective antibody αvβ6 inhibitor 3G9; the αvβ1-selective small molecule inhibitor; a combination of the selective antibody αvβ6 inhibitor 3G9 and the αvβ1-selective small molecule inhibitor; compound 5; and the small molecule ALK5 inhibitor. The selective αvβ1 and αvβ6 integrin inhibitors were analyzed at ≥their respective IC90 concentrations for inhibition of TGF-beta activation. […]

[1] = First-in-human SAD and MAD pharmacokinetics (Example B12); format: in vivo; conditions: plasma, healthy subjects, oral solution, SAD 15-75 mg and MAD 10-40 mg, read-out: calculated half life
Procedure: Healthy human subjects (N=85) were selected for single ascending dose (SAD) and multiple ascending dose (MAD) first-in-human studies. A solution for oral administration was prepared, containing 10 mg/mL of compound 5 in a 50:50 mixture of ORA-SWEET® SF (PERRIGO®, Allegan, Mich.) and sterile water for irrigation. Sufficient solution was administered orally to the subjects to provide between 15 mg/dose and 75 mg/dose of compound 5 in the SAD study and between 10 mg/dose and 40 mg/dose of compound 5 in the MAD study. Concentrations of compound 5 were measured in the subjects by obtaining a sample of plasma from each subject at desired intervals, and subjecting the plasma to liquid chromatography-mass spectrometry-mass spectrometry (LC-MS/MS), with quantification using a calibration curve determined from a range of solutions at standardized concentrations. The lower limit of quantitation (LLOQ) of the assay was 1 ng/mL and the calibration curve range was 1 to 500 ng/mL.

[2] = Plasma PK, Example B15 Part 1; format: in vivo; conditions: human, initial results; for Cmax / AUC(0-t): Day 7, geometric mean; for AUC(0-t): read-out: AUC0-24, ng × h/mL; for Tmax: Day 7, median
Procedure: This study was designed as a randomized, double-blind, placebo-controlled study in 48 healthy participants conducted in 2 parts. Part 1 has completed clinical conduct, and Part 2 is ongoing. In Part 1, 24 participants were randomized 1:1:1 to receive Compound 5 80 mg QD, Compound 5 160 mg QD, or placebo QD. A safety review committee reviewed the safety and PK data from Part 1 and recommended doses for Part 2. In Part 2, 24 participants were randomized 1:1:1 to receive Compound 5 320 mg QD (Compound 5 in the morning and matched placebo in the afternoon), Compound 5 160 mg twice daily (BID), or placebo BID. In both parts, samples of BALF were collected from the middle lobe or lingula via bronchoscopy prior to dosing (Day −1) and at 6 and 24 hours post morning dose on Day 7. BALF samples were assessed for TGF-β receptor kinase activity (pSMAD2/SMAD2) in pelleted cells (primarily alveolar macrophages) and additional cell material was used to measure TGF-β signaling pathway-related gene expression levels. Plasma samples were collected to measure Compound 5 concentrations and determine protein binding. Safety was monitored via open-ended AE inquiry and clinical chemistry, hematology, vital sign, and 12-lead ECG parameters.

[3] = Single dose pharmacokinetics (SAD), Example B14; format: in vivo, human; conditions: for half-life / Cmax / AUC(0-t) / Tmax: human, oral; for half-life: plasma total drug; for half-life / Cmax / AUC(0-t): geometric mean; for Cmax / AUC(0-t) / Tmax: plasma; for AUC(0-t): read-out: AUC0-24, ng × h/mL; for Tmax: median
Excerpt: Accordingly, a study was designed to assess the PK of Compound 5 after a single dose and following a 6-day course of doses, at levels exceeding the dosages used in preceding Examples B12 and B13. This study was designed to assess at these higher doses aspects of the single-dose and steady-state pharmacokinetics of Compound 5.
This study was a single-center, randomized, double-blind, ascending dose, placebo-controlled study in healthy participants. Each cohort included 10 participants (8 active, 2 placebo). Study participants received single ascending doses (SAD) of Compound 5 of 120, 160, 240, 320, 480, and 640 mg and multiple ascending doses (MAD) of Compound 5 of 80, 120, 160, 240, and 320 mg. Two cohorts of participants at 160 mg were studied in the MAD phase of the study.
Participants received single Compound 5 doses of 120, 160, 240, 320, 480, and 640 mg. A total of 60 participants were enrolled across the dosing groups, with 48 participants who received Compound 5 available for PK analyses. Despite the substantially higher dosages, PK parameters in the dosing groups were consistent with those observed at lower doses in Example B12.

In the case of `COCCN(CCCCc1ccc2c(n1)NCCC2)CC[C@H](Nc1ncnc2ccccc12)C(=O)O` [Compound 5, (S)-4-((2-methoxyethyl) (4-(5,6,7,8-tetrahydro-1,8-naphthyridin-2-yl)butyl)amino)-2-(quinazolin-4-ylamino) butanoic acid], the “lung Col1a1 expression” value (lung Col1a1 expression) is reported as “decreased lung Col1a1 expression substantially”, the half-life [1] is reported as 35 to 55 h and the Cmax ([2]; 80 mg QD) is reported as 1510 ng/mL. For the same molecule, the AUC(0-t) ([2]; 80 mg QD) was 25400 ng·h/mL, the Tmax ([2]; 80 mg QD) was 6 h and the Cmax ([2]; 160 mg QD) was 2990 ng/mL. It also gave an AUC(0-t) ([2]; 160 mg QD) of 49900 ng·h/mL, a Tmax ([2]; 160 mg QD) of 5 h and a half-life ([3]; single dose 120 mg) of 37 h. For the same molecule, the half-life ([3]; single dose 160 mg) was 36.5 h, the half-life ([3]; single dose 240 mg) was 46 h and the half-life ([3]; single dose 320 mg) was 40.7 h. It also gave a half-life ([3]; single dose 480 mg) of 43.7 h, a half-life ([3]; single dose 640 mg) of 42.3 h and a Cmax ([3]; single dose 120 mg) of 2710 ng/mL. The AUC(0-t) ([3]; single dose 120 mg) was 27400 ng·h/mL, the Tmax ([3]; single dose 120 mg) was 4 h and the Cmax ([3]; single dose 160 mg) was 2480 ng/mL. The AUC(0-t) ([3]; single dose 160 mg) was 28500 ng·h/mL, the Tmax ([3]; single dose 160 mg) was 1.95 h and the Cmax ([3]; single dose 240 mg) was 4390 ng/mL. It also gave an AUC(0-t) ([3]; single dose 240 mg) of 48000 ng·h/mL, a Tmax ([3]; single dose 240 mg) of 3.5 h and a Cmax ([3]; single dose 320 mg) of 6390 ng/mL. The AUC(0-t) ([3]; single dose 320 mg) was 71200 ng·h/mL, the Tmax ([3]; single dose 320 mg) was 4 h and the Cmax ([3]; single dose 480 mg) was 5080 ng/mL. For the same molecule, the AUC(0-t) ([3]; single dose 480 mg) was 57300 ng·h/mL, the Tmax ([3]; single dose 480 mg) was 3 h and the Cmax ([3]; single dose 640 mg) was 6900 ng/mL. The AUC(0-t) ([3]; single dose 640 mg) was 88300 ng·h/mL, the Tmax ([3]; single dose 640 mg) was 3.5 h and the “dose proportionality of total and peak exposures” value ([3]; single doses over the range of 120 to 640 mg) was “slightly less than dose-proportional manner”. For the same molecule, the “dose proportionality of total (AUC0-24) and peak (Cmax) exposure” value ([3]; single oral doses of 120 to 320 mg) was “increased in a dose-proportional manner”.
